In experiment [1] the target is bee venom phospholipase A2 (Apis mellifera, UniProt P00630). In words: biochemical. The following applies: read-out: PLA2 IC50.
The target in experiment [2] is phosphoinositide-specific phospholipase C. The experiment can be described thus: Inhibition of phosphoinositide-specific phospholipase C (PLC). As to conditions: procedure of Bennett et al, Molecular Pharmacology 32:587-593 (1987). It is filed as biochemical. From the text: Inhibition of Phosphoinositide-specific Phospholipase C
The effect of compounds of this invention on phosphoinositide-specific phospholipase C may be determined by procedures described by Bennett et al, Molecular Pharmacology 32:587-593 (1987).

Where two headings read alike, the source gives them in different places.

The values below come from patent US5171864A, “Di-(5-hydroxy-2(5H)-2-oxo-4-furyl)methyl-alpha,omega alkane-dioates and N,N-bis-(5-hydroxy-2(5H)-2-oxo-4-furyl)methyl-alpha,omega-dialkanoic acid amides as anti-inflammatory agents” (Allergan, Inc., priority 1991, dated 1992).

Sequence of bee venom phospholipase A2 (P00630 34-167 limits assumed): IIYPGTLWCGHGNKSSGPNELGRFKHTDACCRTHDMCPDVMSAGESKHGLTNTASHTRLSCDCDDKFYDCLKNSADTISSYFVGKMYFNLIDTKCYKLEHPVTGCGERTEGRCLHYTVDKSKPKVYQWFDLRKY

Take `O=C(CCCCCCCCCCC(=O)NCC1=CC(=O)OC1OC(=O)Nc1ccccc1)NCC1=CC(=O)OC1OC(=O)Nc1ccccc1` (stereo not shown) [Compound 5, N,N'-bis(5-phenylcarbamoyloxy-2(5H)2-oxo-4-furyl)methyl-1.12-dodeca]: the 50% inhibitory concentration (IC50) is > 1 µM in experiment [1] (pH 7.4) and > 100 µM in experiment [2].
For `CC(C)(C)C(=O)OC1OC(=O)C=C1COC(=O)CCCCCCCCCCC(=O)OCC1=CC(=O)OC1OC(=O)C(C)(C)C` (stereo not shown) [Compound 2, Di-[5tert-butanoyloxy-2(5H)-furano-4yl]methyl dodecan-1,12-dioate], in that order: > 1 µM and > 100 µM.
Consider `O=C(CCCCCCCCCCC(=O)NCC1=CC(=O)OC1O)NCC1=CC(=O)OC1O` (stereo not shown) [Compound 3, N,N'-Bis(5-hydroxy-2(5H)-2-oxo-4-furyl)methyl-1,12-dodecanoic acid amide], for which the IC50 in experiment [1] is 0.03 µM; in experiment [2], > 100 µM.
Regarding `O=C1C=C(COC(=O)CCCCCCCCCCC(=O)OCC2=CC(=O)OC2O)C(O)O1` (stereo not shown) [Compound 1, Di-[5-hydroxy-2(5H)-2-oxo-4-furyl]methyl dodecan-1,12-dioate], the IC50 was 0.07 µM in experiment [1] and > 100 µM in experiment [2].
On to `O=C(CCCCCCCCCCC(=O)NCC1=CC(=O)OC1OC(=O)Nc1ccccc1)NCC1=CC(=O)OC1O` (stereo not shown) [Compound 4, N-(5-Hydroxy-2(5H)2-oxo-4-furyl)methyl-N'-(5-phenylcarbamoyloxy-2(5H) 2-oxo-4-furyl)methyl-1,12-dodecanamide], for which the IC50 in experiment [1] (pH 7.4) was > 1 µM; in experiment [2] it was > 100 µM.

What is called IC50 is the midpoint of a concentration-inhibition curve.
